The source of these data is patent US4072751A, “Pesticidal N-substituted bis-carbamoyl sulfide compounds” (priority 1976, dated 1978).

Data set [1] deals with Mexican bean beetle (Epilachna varivestis, Muls.). The experiment in a line: Mexican Bean Beetle Leaf Spray Test. The format is in vivo. Also noted: key: A: excellent control; B: partial control; C: no control. The note with it: fourth instar larvae; 500 parts of test compound per million parts of final formulation; 3 days. The method, then: (§1) Suspensions of the test compounds were prepared by dissolving one gram of compound in 50 milliliters of acetone in which had been dissolved 0.1 gram (10 percent of the weight of compound) of an alkylphenoxy polyethoxyethanol surfactant, as an emulsifying or dispersing agent. The resulting solution was mixed into 150 milliliters of water to give roughly 200 milliliters of a suspension containing the compound in finely divided form. The thus-prepared stock suspension contained 0.5 percent by weight of test compound. The test concentrations in parts per million by weight employed in the tests described hereinbelow were obtained by appropriate dilutions of the stock suspension with water. The test procedures were as follows:
Fourth instar larvae of the Mexican bean beetle (Epilachna varivestis, Muls.) reared on Tendergreen bean plants at a temperature of 80±5° and 50±5 percent relative humidity, were the test insects.
The test compounds were formulated by diluting the stock suspension with water to give a suspension containing 500 parts of test compound per million parts of final formulation. Potted Tendergreen bean plants of standard height and age were placed on a revolving turntable and sprayed with 100-110 milliliters of test compound formulation by use of a DeVilbiss spray gun set at 10 psig air pressure. This application, which lasted 25 seconds was sufficient to wet plants to run-off. As a control, 100-110 milliliters of a water-acetone-emulsifier solution containing no test compound were also sprayed on infested plants. When dry, the paired leaves were separated and each was placed in a 9 centimeter Petri dish lined with moistened filter paper. Five randomly selected larvae were introduced into each dish, and the dishes were closed. The closed dishes were labeled and held at a temperature of 80±5° F. for 3 days. Although the larvae could easily consume the leaf within 24 to 48 hours, no more food was added. Larvae which were unable to move the length of the body, even upon stimulation, were considered dead.
(§2) In these tests the pesticidal activity of the compounds against aphid, mite, Southern Armyworm, Mexican Bean Beetle, and house fly was rated as follows: […]

Data set [2] relates to house flies (Musca domestica, L.). The data set can be described thus: Fly Bait Test. The note with it: adults, 500 parts of test compound per million parts of final formulation, 24 hours. Also noted: key: A: excellent control; B: partial control; C: no control. The format is in vivo. As for the experimental part:
as §1
Four to 6 day old adult house flies (Musca domestica, L.) reared according to the specifications of the Chemical Specialties Manufacturing Association (Blue Book, McNair-Dorland Co., NY., 1954; pages 243-244, 261) under controlled conditions of 80±5° F. and 50±5 percent relative hmidity, were the test insects. The flies were immobilized by anesthetizing with carbon dioxide and 25 immobilized individuals, males and females, were transferred to a cage consisting of a standard food strainer about 5 inches in diameter which was inverted over a wrapping-paper-covered surface. The test compounds were formulated by diluting the stock suspension with a 10 percent (by weight) sugar solution to give a suspension containing 500 parts of test compound per million parts of final formulation, by weight. Ten milliliters of the test formulation were added to a souffle cup containing a one inch square of an absorbent cotton pad. This bait cup was introduced and centered on the blotting paper under the food strainer prior to admitting the anesthetized flies. The caged flies were allowed to feed on the bait for 24 hours, at a temperature of 80±5° F. and the relative humidity of 50±5 percent.
as §2

The nature of data set [3]: Mammalian Toxicity Test (peroral toxicity). The note with it: in vivo, po, rat, read-out: A. O. Rat (LD50). The method, then:
Certain of these compositions were also evaluated to determine their peroral toxicity to mammals. The animal selected for this experiment was the rat. The test results obtained are expressed in terms of the number of milligrams of compositions per kilogram of weight of the animal required to achieve a morality rate of 50 percent (LD50).

Data set [4] concerns two-spotted mite (Tetranychus urticae Koch). The experiment in a line: Mite Foliage Spray Test. The note with it: 500 parts of test compound per million parts of final formulation; 6 days. The format is in vivo. Also noted: key: A: excellent control; B: partial control; C: no control. The method, then: as §1
Adults and nymphal stages of the two-spotted mite (Tetranychus urticae Koch), reared on Tendergreen bean plants at 80±5 percent relative humidity, were the test organisms. Infested leaves from a stock culture were placed on the primary leaves of two bean plants 6 to 8 inches in height, growing in a 21/2 inch clay pot. 150-200 Mites, a sufficient number for testing, transferred from the excised leaves to the fresh plants in a period of 24 hours. Following the 24 hour transfer period, the excised leaves were removed from the infested plants. The test compounds were formulated by diluting the stock suspension with water to give a suspension with water to give a suspension containing 500 parts of test compound per million parts of final formulation. The potted plants (one pot per compound) were placed on a revolving turntable and sprayed with 100-110 milliliters of test compound formulation by use of a DeVilbiss spray gun set at 40 psig. air pressure. This application, which lasted for 25 seconds was sufficient to wet the plants to run-off. As a control, 100-110 milliliters of a water solution containing acetone and emulsifier in the same concnetrations as the test compound formulation, but containing no test compound, were also sprayed on infested plants. The sprayed plants were held at 80±5 percent relative humidity for 6 days, after which a mortality count of motile forms was made. Microscopic examination for motile forms was made on the leaves of the test plants. Any individual which was capable of locomotion upon prodding, was considered living.
as §2

In data set [5] the test system is southern armyworm (Prodenia Eridania, (Cram.)). The experiment in a line: Southern Armyworm Leaf Spray Test. Also noted: key: A: excellent control; B: partial control; C: no control. The format is in vivo. The note with it: larvae; 500 parts of test compound per million parts of final formulation; 3 days. As for the experimental part:
as §1
Larvae of the southern armyworm (Prodenia Eridania, (Cram.), reared on Tendergreen bean plants at a temperature of 80±5° F. and relative humidity of 50±5 percent, constituted the test insects.
The test compounds were formulated by diluting the stock suspension with water to give a suspension containing 500 parts of test compound per million parts of final formulation. Potted Tendergreen bean plants of standard height and age were placed on a revolving turntable and sprayed with 100-110 milliliters of test compound formulation by use of a DeVilbiss spray gun set at 10 psig. air pressure.
This application which lasted 25 seconds was sufficient to wet plants to run-off. As a control, 100-110 milliliters of a water-acetone-emulsifier solution containing no test compound were also sprayed on infested plants. When dry, the paired leaves were separated and each one was placed in a 9 centimeter Petri dish lined with moistened filter paper. Five randomly selected larvae were introduced into each dish and the dishes were closed. The closed dishes were labeled and held at 80°-85° F. for 3 days. Although the larvae could easily consume the whole leaf within 24 hours, no more food was added. Larvae which were unable to move the length of the body, even upon stimulation by prodding, were considered dead. Percent mortality was recorded for various concentration levels.
as §2

In data set [6] the test system is bean aphid (Aphis Fabae Scop.). The experiment in a line: Bean Aphid Foliage Spray Test. The format is in vivo. Also noted: key: A: excellent control; B: partial control; C: no control. The note with it: 500 parts of test compound per million parts of final formulation; 24 hour. As for the experimental part:
as §1
Adults and nymphal stages of the bean aphid (Aphis Fabae Scop.) reared on potted dwarf nasturtium plants at 65°-70° F and 50-70 percent relative humidity, constituted the test insects. For testing purposes, the number of aphids per pot was standardized to 100-150 by trimming plants containing excess aphids.
The test compounds were formulated by diluting the stock suspension with water to give a suspension containing 500 parts of test compound per million parts of final formulation.
The potted plants (one pot per compound tested) infested with 100-150 aphids, were placed on a revolving turntable and sprayed with 100-110 milliliters of test compound formulation by use of a DeVilbiss spray gun set at 40 psig. air pressure. This application, which lasted 25 seconds, was sufficient to wet the plants to run-off. As a control, 100-110 milliliters of a water-acetone-emulsifier solution containing no test compound were also sprayed on infested plants. After spraying, the pots were placed on their sides on a sheet of white standard mimeograph paper which had been previously ruled to facilitate counting. Temperature and humidity in the test room during the 24 hour holding period were 65°-70° F. and 50-70 percent, respectively. Aphids which fell onto the paper and were unable to remain standing after being uprighted were considered dead. Aphids remaining on the plants were observed closely for movement and those which were unable to move the length of the body upon stimulator by prodding were considered dead. Percent mortality was recorded for various concentration levels.
as §2

Each structure is given as a SMILES string.

A word on the LD50: it is the dose at which mortality reaches 50%. For `CSC(C)=NOC(=O)N(C)SN(C)C(=O)ON=C(C)[S+](C)[O-]` (stereo not shown), the “Mexican Bean Beetle” value in data set [1] is given as “A”. For the same molecule, the Housefly result in data set [2] is “A”. The LD50 in data set [3] came to 202 mg/kg. Also, the Mite result in data set [4] is listed as “C”. For the same molecule, the “Southern Armyworm” value in data set [5] is on record as “A”. In addition, the Aphid entry in data set [6] is given as “A”.
In the case of `CSC(C)=NOC(=O)N(C)SN(C)C(=O)ON=C(C)S(C)(=O)=O`, the “Mexican Bean Beetle” value in data set [1] is “A”. The Housefly result in data set [2] is recorded as “A”. For the same molecule, in data set [3], the LD50 is 285 mg/kg. In data set [4], the Mite result is recorded as “A”. The “Southern Armyworm” value in data set [5] was “A”. For the same molecule, the Aphid result in data set [6] is reported as “A”.
For `CC(=NOC(=O)N(C)SN(C)C(=O)ON=C(C)[S+](C)[O-])[S+](C)[O-]` (stereo not shown), the “Mexican Bean Beetle” value in data set [1] is “C”. Also, the Housefly entry in data set [2] was “C”. Besides, in data set [4], the Mite entry is reported as “C”. The “Southern Armyworm” value in data set [5] was “C”. In data set [6], the Aphid result is reported as “C”.
On to `CC(=NOC(=O)N(C)SN(C)C(=O)ON=C(C)S(C)(=O)=O)S(C)(=O)=O`, for which the “Mexican Bean Beetle” value in data set [1] is “C”. Further, in data set [2], the Housefly entry is “C”. The Mite entry in data set [4] was “C”. Further, the “Southern Armyworm” value in data set [5] is “C”. In data set [6], the Aphid result is on record as “C”.
